Holding throughout (assay type): biochemical
One assay concerns the target E. coli GCH I (FolE) (Escherichia coli, UniProt P0A6T5). Description: HPLC of product. The note with it: anaerobic.
For a further assay, the target named is T1, mouse PTPS (mPTPS) (Mus musculus, UniProt Q9R1Z7).
T1 sequence (Q9R1Z7 1-144): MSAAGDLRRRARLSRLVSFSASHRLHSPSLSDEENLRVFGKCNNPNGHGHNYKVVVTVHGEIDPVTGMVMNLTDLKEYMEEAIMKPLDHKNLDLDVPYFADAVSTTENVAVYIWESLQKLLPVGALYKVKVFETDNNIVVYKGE
As to the kind of experiment: HPLC of product, UV-visible spectra. The note with it: anaerobic; H2NTP generated in situ from GTP by FolE; control reaction.

The target in the next assay is T2, E. coli QueD (Escherichia coli, UniProt P65870).
T2 sequence (P65870 1-121): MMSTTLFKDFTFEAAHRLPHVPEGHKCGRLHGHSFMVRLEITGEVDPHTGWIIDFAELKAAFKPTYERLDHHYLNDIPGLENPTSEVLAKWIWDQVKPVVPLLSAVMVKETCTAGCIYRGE
Description: HPLC of product, UV-visible spectra. The note with it: anaerobic (95% N2:5% H2).

Each structure is given as a SMILES string.

Sequence of E. coli GCH I (FolE) (P0A6T5 2-222): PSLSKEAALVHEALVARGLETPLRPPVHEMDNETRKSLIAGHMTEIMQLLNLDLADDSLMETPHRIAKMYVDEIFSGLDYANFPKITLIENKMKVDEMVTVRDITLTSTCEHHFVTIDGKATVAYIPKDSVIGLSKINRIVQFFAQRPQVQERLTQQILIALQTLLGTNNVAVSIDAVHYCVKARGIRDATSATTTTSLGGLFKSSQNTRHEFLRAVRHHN

For `Nc1nc2c(ncn2[C@@H]2O[C@H](COP(=O)(O)OP(=O)(O)OP(=O)(O)O)[C@@H](O)[C@H]2O)c(=O)[nH]1` [GTP], the HPLC of product entry on E. coli GCH I (FolE) is “H2NTP could be produced quantitatively from GTP”.
For `Nc1nc2c(c(=O)[nH]1)N=C([C@H](O)[C@H](O)COP(=O)(O)OP(=O)(O)OP(=O)(O)O)CN2` [H2NTP], the “HPLC of product, UV-visible spectra” value on mouse PTPS (mPTPS) was “H2NTP was quantitatively converted to PPH4”.
Regarding `C[C@H](O)C(=O)C1=Nc2c(nc(N)[nH]c2=O)NC1` [sepiapterin], the “HPLC of product, UV-visible spectra” value at E. coli QueD is “the same product forms when sepiapterin is the substrate for QueD”.

These data come from paper PMC3227869 (Biochemistry, 2009).
